The target in the experiment is hS1P3 (Homo sapiens, UniProt Q99500). The experiment can be described thus: Suppressive effect on S1P-induced increase in [Ca2+]i, CHO-K1 cells expressing S1P3 (Fura 2-AM), IC50. Conditions: S1P solution 50 nmol/L, read-out: hS1P3 suppression IC50. The experiment is classed as cell-based.

Here are results for 41 compounds from US8546452B2, “S1P3 receptor antagonist” (TOA Eiyo Ltd., priority 2005, dated 2013).

Sequence of hS1P3 (Q99500 whole entry): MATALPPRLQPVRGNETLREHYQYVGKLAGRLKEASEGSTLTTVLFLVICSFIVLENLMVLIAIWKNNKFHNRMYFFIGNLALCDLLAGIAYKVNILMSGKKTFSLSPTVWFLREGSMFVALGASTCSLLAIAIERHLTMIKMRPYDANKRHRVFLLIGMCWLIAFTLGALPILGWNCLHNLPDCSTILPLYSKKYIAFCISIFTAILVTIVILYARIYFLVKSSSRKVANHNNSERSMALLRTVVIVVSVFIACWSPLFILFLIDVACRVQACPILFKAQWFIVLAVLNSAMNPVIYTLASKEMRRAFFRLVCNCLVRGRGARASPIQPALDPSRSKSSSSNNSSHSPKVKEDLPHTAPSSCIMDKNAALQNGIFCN

`O=C(C(=NNc1ccc(Cl)cc1)Nc1ccc(Cl)cc1)c1ccccc1` [Compound 12, 2-(4-chlorophenylamino)-2-(4-chlorophenylhydrazono)acetophenone]: the IC50 turned out to be 4.84 µM.

For the compound `CC(C)(C)C(=O)C(=NNc1ccc(Cl)cc1)Nc1ccc(Cl)c(Cl)c1` [Compound 38, 1-(4-chlorophenylhydrazono)-1-(3,4-dichlorophenylamino)-3,3-dimethyl-2-butanone], the 50% inhibitory concentration (IC50) is 0.31 µM.

For `O=C(C(=NNc1ccc(Cl)cc1)Nc1cc(Cl)nc(Cl)c1)c1ccccc1` [Compound 4, 2-(4-chlorophenylhydrazono)-2-(2,6-dichloropyridin-4-ylamino)acetophenone], the IC50 stood at 2.81 µM.

For the compound `CC(C)(C)C(=O)C(=NNc1ccc(C(F)(F)F)cc1)Nc1ccc(Cl)cc1` [Compound 68, 1-(4-chlorophenylamino)-1-(4-trifluoromethylphenylhydrazono)-3,3-dimethyl-2-butanone], the concentration for half-maximal inhibition (IC50) was 9.09 µM.

On to `CC(C)(C)C(=O)C(=NNc1ccc(F)cc1)Nc1ccc(Cl)c(Cl)c1` [Compound 60, 1-(3,4-dichlorophenylamino)-1-(4-fluorophenylhydrazono)-3,3-dimethyl-2-butanone], for which the IC50 was found to be 1.02 µM.

With `C#Cc1ccc(NC(=NNc2ccc(C(C)=O)cc2)C(=O)C(C)(C)C)cc1` [Compound 95, 1-(4-acetylphenylhydrazono)-1-(4-ethynylphenylamino)-3,3-dimethyl-2-butanone], the 50% inhibitory concentration (IC50) amounted to 18.6 µM.

As to `C#Cc1ccc(NC(=NNc2ccc(Cl)c(Cl)c2)C(=O)C(C)(C)C)cc1` [Compound 132, 1-(3,4-dichlorophenylhydrazono)-1-(4-ethynylphenylamino)-3,3-dimethyl-2-butanone], the 50% inhibitory concentration (IC50) was 0.82 µM.

Take `O=C(C(=NNc1ccc(Cl)cc1)Nc1cccc(C(F)(F)F)c1)c1ccco1` [Compound 120, 1-(4-chlorophenylhydrazono)-1-(3-trifluoromethylphenylamino)-2-(2-furyl)-2-ethanone]: the IC50 amounted to 5.45 µM.

Consider `C#Cc1cccc(NC(=NNc2ccc(Cl)c(Cl)c2)C(=O)C(C)(C)C)c1` [Compound 107, 1-(3,4-dichlorophenylhydrazono)-1-(3-ethynylphenylamino)-3,3-dimethyl-2-butanone], for which the concentration for half-maximal inhibition (IC50) is 0.69 µM.

For `CC(C)(C)C(=O)C(=NNc1ccc(F)cc1)Nc1ccc(C(F)(F)F)cc1` [Compound 58, 1-(4-fluorophenylhydrazono)-1-(4-trifluoromethylphenylamino)-3,3-dimethyl-2-butanone], the 50% inhibitory concentration (IC50) was determined as 5.72 µM.

`CC(C)(C)C(=O)C(=NNc1ccc(C(F)(F)F)cc1)Nc1ccc(Cl)c(Cl)c1` [Compound 72, 1-(3,4-dichlorophenylamino)-1-(4-trifluoromethylphenylhydrazono)-3,3-dimethyl-2-butanone]: the IC50 is 3.64 µM.

Take `CC(=O)c1ccc(NN=C(Nc2cccc(F)c2)C(=O)C(C)(C)C)cc1` [Compound 91, 1-(4-acetylphenylhydrazono)-1-(3-fluorophenylamino)-3,3-dimethyl-2-butanone]: the IC50 came to 8.9 µM.

Take `CCOC(=O)C(=NNc1ccc(Cl)cc1)Nc1cccc(C(F)(F)F)c1` [Compound 16, ethyl 1-(4-chlorophenylhydrazono)-1-(3-trifluoromethylphenylamino)acetate]: the IC50 turned out to be 3.94 µM.

With `O=C(C(=NNc1ccc(Cl)cc1)Nc1cccc(Cl)c1)c1ccccc1` [Compound 11, 2-(3-chlorophenylamino)-2-(4-chlorophenylhydrazono)acetophenone], the concentration for half-maximal inhibition (IC50) is 5.34 µM.

Turning to `CC(C)(C)C(=O)C(=NNc1ccc(S(C)(=O)=O)cc1)Nc1ccc(Cl)cc1` [Compound 99, 1-(4-chlorophenylamino)-1-(4-methanesulfonylphenylhydrazono)-3,3-dimethyl-2-butanone], the IC50 worked out at 10.6 µM.

Consider `CCOC(=O)C(=NNc1ccc(Cl)cc1)Nc1cc(F)cc(F)c1` [Compound 17, ethyl 1-(4-chlorophenylhydrazono)-1-(3,5-difluorophenylamino)acetate], for which the IC50 came out at 1.92 µM.

`O=C(C(=NNc1ccc(Cl)cc1)Nc1cc(F)cc(F)c1)N1CCCCC1` [Compound 25, [1-(4-chlorophenylhydrazono)-1-(3,5-difluorophenylamino)acetyl]piperidine]: the 50% inhibitory concentration (IC50) is 11.7 µM.

Turning to `CC(C)(C)C(=O)C(=NNc1ccc(Cl)cc1)Nc1cc(Cl)cc(Cl)c1` [Compound 37, 1-(4-chlorophenylhydrazono)-1-(3,5-dichlorophenylamino)-3,3-dimethyl-2-butanone], the IC50 was 0.49 µM.

As to `CC(C)(C)C(=O)C(=NNc1ccc(Cl)cc1)Nc1cc(Cl)nc(Cl)c1` [Compound 35, 1-(4-chlorophenylhydrazono)-1-(2,6-dichloropyridin-4-ylamino)-3,3-dimethyl-2-butanone], the IC50 stood at 7.49 µM.

As for `COc1ccc(NC(=NNc2ccc(C#N)cc2)C(=O)C(C)(C)C)cc1` [Compound 87, 1-(4-cyanophenylhydrazono)-1-(4-methoxyphenylamino)-3,3-dimethyl-2-butanone], the 50% inhibitory concentration (IC50) amounted to 14 µM.

In the case of `O=C(C(=NNc1ccc(Cl)cc1)Nc1ccc(F)cc1)c1ccco1` [Compound 118, 1-(4-chlorophenylhydrazono)-1-(4-fluorophenylamino)-2-(2-furyl)-2-ethanone], the IC50 is 3.85 µM.

Consider `CC(C)(C)NC(=O)C(=NNc1ccc(Cl)cc1)Nc1ccc(Cl)c(Cl)c1` [Compound 31, N-tert-butyl-[1-(4-chlorophenylhydrazono)-1-(3,4-dichlorophenylamino)]acetamide], for which the IC50 turned out to be 10.5 µM.

On to `CC(C)(C)NC(=O)C(=NNc1ccc(Cl)cc1)Nc1cc(Cl)cc(Cl)c1` [Compound 30, N-tert-butyl-[1-(4-chlorophenylhydrazono)-1-(3,5-dichlorophenylamino)]acetamide], for which the half-maximal inhibitory concentration (IC50) came to 12.3 µM.

`CC(C)(C)C(=O)C(=NNc1ccccc1)Nc1cc(Cl)cc(Cl)c1` [Compound 51, 1-(3,5-dichlorophenylamino)-1-(phenylhydrazono)-3,3-dimethyl-2-butanone]: the IC50 was 2.44 µM.

Consider `CC(C)(C)CC(=O)C(=NNc1ccc(Cl)cc1)Nc1ccc(F)cc1` [Compound 114, 1-(4-chlorophenylhydrazono)-1-(4-fluorophenylamino)-4,4-dimethyl-2-pentanone], for which the IC50 came out at 2.09 µM.

As to `CC(C)(C)C(=O)C(=NNc1ccc(C#N)cc1)Nc1ccc(F)cc1` [Compound 82, 1-(4-cyanophenylhydrazono)-1-(4-fluorophenylamino)-3,3-dimethyl-2-butanone], the 50% inhibitory concentration (IC50) came out at 5.07 µM.

Consider `CC(C)(C)C(=O)C(=NNc1ccc(F)cc1)Nc1cc(Cl)cc(Cl)c1` [Compound 59, 1-(3,5-dichlorophenylamino)-1-(4-fluorophenylhydrazono)-3,3-dimethyl-2-butanone], for which the IC50 was found to be 1.39 µM.

`CCC(CC)C(=O)C(=NNc1ccc(Cl)cc1)Nc1ccc(Cl)cc1` [Compound 110, 1-(4-chlorophenylamino)-1-(4-chlorophenylhydrazono)-3-ethyl-2-pentanone]: the IC50 is 0.97 µM.

With `O=C(C(=NNc1ccc(Cl)cc1)Nc1ccc(F)cc1)c1ccccc1` [Compound 9, 2-(4-chlorophenylhydrazono)-2-(4-fluorophenylamino)acetophenone], the IC50 was 4.57 µM.

`CC(C)(C)C(=O)C(=NNc1ccc(Cl)c(Cl)c1)Nc1ccc(Cl)cc1` [Compound 124, 1-(4-chlorophenylamino)-1-(3,4-dichlorophenylhydrazono)-3,3-dimethyl-2-butanone]: the IC50 worked out at 0.45 µM.

As to `CC(C)(C)C(=O)C(=NNc1ccc(Cl)cc1)Nc1ccc(Cl)c(F)c1` [Compound 135, 1-(4-chloro-3-fluorophenylamino)-1-(4-chlorophenylhydrazono)-3,3-dimethyl-2-butanone], the IC50 worked out at 0.9 µM.

In the case of `CCOC(=O)C(=NNc1ccc(Cl)cc1)Nc1ccc(Cl)cc1` [Compound 14, ethyl 1-(4-chlorophenylamino)-1-(4-chlorophenylhydrazono)acetate], the half-maximal inhibitory concentration (IC50) was 1.87 µM.

Turning to `CC(C)(C)C(=O)C(=NNc1ccc(C(F)(F)F)cc1)Nc1cccc(F)c1` [Compound 66, 1-(3-fluorophenylamino)-1-(4-trifluoromethylphenylhydrazono)-3,3-dimethyl-2-butanone], the half-maximal inhibitory concentration (IC50) was 7.05 µM.

On to `O=C(C(=NNc1ccc(Cl)cc1)Nc1ccc(Br)cc1)c1ccco1` [Compound 119, 1-(4-bromophenylamino)-1-(4-chlorophenylhydrazono)-2-(2-furyl)-2-ethanone], for which the IC50 came out at 4.23 µM.

Regarding `CC(C)(C)C(=O)C(=NNc1ccc(Cl)cc1)Nc1cccc(C(F)(F)F)c1` [Compound 36, 1-(4-chlorophenylhydrazono)-1-(3-trifluoromethylphenylamino)-3,3-dimethyl-2-butanone], the 50% inhibitory concentration (IC50) was found to be 2.53 µM.

Regarding `O=C(C(=NNc1ccc(Cl)cc1)Nc1ccc(Cl)cc1)N1CCCCC1` [Compound 23, [1-(4-chlorophenylamino)-1-(4-chlorophenylhydrazono)acetyl]piperidine], the IC50 is 14.5 µM.

On to `COc1ccc(NN=C(Nc2ccc(Cl)cc2)C(=O)C(C)(C)C)cc1` [Compound 90, 1-(4-chlorophenylamino)-1-(4-methoxyphenylhydrazono)-3,3-dimethyl-2-butanone], for which the IC50 was determined as 6.58 µM.

As to `CCCCC(=O)C(=NNc1ccc(Cl)cc1)Nc1ccc(Cl)c(Cl)c1` [Compound 109, 1-(4-chlorophenylhydrazono)-1-(3,4-dichlorophenylamino)-2-hexanone], the IC50 stood at 0.76 µM.

Regarding `CC(C)(C)C(=O)C(=NNc1ccc(Cl)cc1)Nc1cc(F)cc(F)c1` [Compound 34, 1-(4-chlorophenylhydrazono)-1-(3,5-difluorophenylamino)-3,3-dimethyl-2-butanone], the IC50 turned out to be 1.22 µM.

Take `C#Cc1ccc(NC(=NNc2ccc(C#N)cc2)C(=O)C(C)(C)C)cc1` [Compound 86, 1-(4-cyanophenylhydrazono)-1-(4-ethynylphenylamino)-3,3-dimethyl-2-butanone]: the 50% inhibitory concentration (IC50) was 6.64 µM.

For the compound `CCCCC(=O)C(=NNc1ccc(Cl)cc1)Nc1cccc(Cl)c1` [Compound 141, 1-(3-chlorophenylamino)-1-(4-chlorophenylhydrazono)-2-hexanone], the IC50 turned out to be 1.99 µM.

A word on the IC50: it is the concentration that gives 50% inhibition.
